Reference: patent US11628160B2, “Compositions and methods for treating brain injury” (Azevan Pharmaceuticals, Inc., priority 2017, dated 2023)

Molecular target: T1, human V1a receptor (Homo sapiens, UniProt P37288)
T1 construct: host or cells: CHO cells
Experiment: Human vasopressin V1a receptor binding assay
Details: hV1a CHO cell line, competition with 1 nM 3H-AVP; for IC50: read-out: V1a Binding Affinity IC50; for Ki: read-out: V1a Ki
Experimental: EXAMPLE. Human vasopressin V1a receptor binding assay. A cell line expressing the human V1a receptor in CHO cells (henceforth referred to as the hV1a cell line) was obtained from Dr. Michael Brownstein, NIMH, Bethesda, Md., USA. The hV1a cDNA sequence is described by Thibonnier et al., Journal of Biological Chemistry, 269, 3304-3310 (1994), and the expression method was the same as described by Morel et al. (1992). The hV1a cell line was grown in alpha-MEM with 10% fetal bovine serum and 250 ug/ml G418 (Gibco, Grand Island, N.Y., USA). For competitive binding assay, hV1a cells were plated into 6-well culture plate at 1:10 dilution from a confluency flask, and maintained in culture for at least two days. Culture medium was then removed, cells were washed with 2 ml binding buffer (25 mM Hepes, 0.25% BSA, 1×DMEM, PH=7.0). To each well, 990 μl binding buffer containing 1 nM 3H-AVP was added, and followed by 10 μl series diluted Example compounds dissolved in DMSO. […] 100 nM cold AVP (Sigma) was used to assess non-specific binding. Cells were incubated for 45 minutes at 37° C., assay mixture was removed and each well was washed three times with PBS (pH=7.4). 1 ml 2% SDS was added per well and plates were let sit for 30 minutes. The whole content in a well was transferred to a scintillation vial. Each well was rinsed with 0.5 ml PBS which was then added to the corresponding vial. Scintillation fluid (Ecoscint, National Diagnostics, Atlanta, Ga.) was then added at 3 ml per vial. Samples were counted in a liquid scintillation counter (Beckman LS3801). IC50 values were calculated by Prism Curve fitting software.
All of the alkanedioic esters and amides exemplified in the foregoing examples dissolved in DMSO were tested in this assay. Binding curves were generated according to methods described by Thibonnier et al. (1994). [^3H]-AVP was added to the hV1a cell cultures followed by 10-fold dilutions of each test compound.

T1 sequence (P37288 whole entry): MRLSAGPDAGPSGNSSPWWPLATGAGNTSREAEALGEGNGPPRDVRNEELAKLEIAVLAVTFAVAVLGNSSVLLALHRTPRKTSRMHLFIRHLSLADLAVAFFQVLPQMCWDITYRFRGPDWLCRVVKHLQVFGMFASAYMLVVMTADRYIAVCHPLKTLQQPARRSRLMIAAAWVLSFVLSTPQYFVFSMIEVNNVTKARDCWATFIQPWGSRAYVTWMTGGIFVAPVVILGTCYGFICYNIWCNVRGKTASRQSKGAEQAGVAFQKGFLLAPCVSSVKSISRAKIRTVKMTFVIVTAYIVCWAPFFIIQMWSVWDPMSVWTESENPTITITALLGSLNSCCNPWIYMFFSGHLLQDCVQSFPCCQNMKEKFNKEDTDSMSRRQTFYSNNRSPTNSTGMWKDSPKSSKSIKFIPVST

| Molecule | IC50 | Ki |
| --- | --- | --- |
| C[C@@H](NC(=O)[C@H](CCC(=O)N1CCN(C2CCCCC2)CC1)N1C(=O)[C@@H](N2C(=O)OC[C@@H]2c2ccccc2)[C@H]1/C=C/c1ccccc1)c1cccc(C(F)(F)F)c1 [Example 221F] | 1.7 nM | 1.04 nM |
| O=C(NCc1cccc(Cl)c1)C(CCC(=O)N1CCN(C2CCCCC2)CC1)N1C(=O)C(N2C(=O)OCC2c2ccccc2)C1C=Cc1ccccc1 (stereo not drawn) [Example 187] | 1 nM | 0.66 nM |
| Cc1ccc(C2(NC(=O)C(CCC(=O)N3CCN(C4CCCCC4)CC3)N3C(=O)C(N4C(=O)OCC4c4ccccc4)C3C=Cc3ccccc3)CC2)cc1 (stereo not drawn) [Example 221AP] | – | 3.8 nM |
| O=C(NCc1cccc(C(F)(F)F)c1)C(CC(=O)N1CCN(N2CCCC2)CC1)N1C(=O)C(N2C(=O)OCC2c2ccccc2)C1C=Cc1ccccc1 (stereo not drawn) [Example 134B] | 44.8 nM | 27.5 nM |
| O=C(CCC(C(=O)NCc1cccc(C(F)(F)F)c1)N1C(=O)C(N2C(=O)OCC2c2ccccc2)C1C=Cc1ccccc1)NCCN1CCCCC1 (stereo not drawn) [Example 87] | 15 nM | – |
| O=C(NC1(c2ccccc2)CCCC1)C(CCC(=O)N1CCN(C2CCCCC2)CC1)N1C(=O)C(N2C(=O)OCC2c2ccccc2)C1C=Cc1ccccc1 (stereo not drawn) [Example 217] | 3.17 nM | 1.94 nM |
| Cc1cccc(CCC2C(N3C(=O)OCC3c3ccccc3)C(=O)N2C(CC(=O)N2CCC(N3CCCCC3)CC2)C(=O)NC(C)c2ccccc2)c1 (stereo not drawn) [Example 778] | – | 0.63 nM |
| CN(Cc1cccc(C(F)(F)F)c1)C(=O)C(CC(=O)N1CCC(N2CCCCC2)CC1)N1C(=O)C(N2C(=O)OCC2c2ccccc2)C1CCc1cccc(Br)c1 (stereo not drawn) [Example 617] | – | 0.69 nM |
| O=C(NCc1cccc(Cl)c1Cl)C(CCC(=O)N1CCN(C2CCCCC2)CC1)N1C(=O)C(N2C(=O)OCC2c2ccccc2)C1C=Cc1ccccc1 (stereo not drawn) [Example 176] | 0.61 nM | 0.38 nM |
| O=C(NCc1cccc([N+](=O)[O-])c1)C(CCC(=O)N1CCN(C2CCCCC2)CC1)N1C(=O)C(N2C(=O)OCC2c2ccccc2)C1C=Cc1ccccc1 (stereo not drawn) [Example 189] | 1.7 nM | 1.04 nM |
| O=C(CC[C@@H](C(=O)N[C@@H]1CCCc2ccccc21)N1C(=O)[C@@H](N2C(=O)OC[C@@H]2c2ccccc2)[C@H]1/C=C/c1ccccc1)N[C@@H]1CCN(Cc2ccccc2)C1 [Example 221AD] | ~50 nM | – |
| (2S)-[(4-cyclohexylpiperazinyl)carbonylethyl]-2-[3(S)-(4(S)-phenyloxazolidin-2-on-3-yl)-4(R)-(2-phenyleth-1-yl)azetidin-2-on-1-yl]acetic acid N—[(R)-1,2,3,4-tetrahydronaphth-1-yl]amide [Example 236A] | 9 nM | 5.5 nM |
| O=C(NCc1ccccc1F)C(CC(=O)N1CCC(N2CCCCC2)CC1)N1C(=O)C(N2C(=O)OCC2c2ccccc2)C1CCc1ccccc1 (stereo not drawn) [Example 677] | – | 3 nM |
| O=C(NC1CCCc2ccccc21)C(CCC(=O)N1CCN(C2CCCCC2)CC1)N1C(=O)C(N2C(=O)OCC2c2ccccc2)C1C=Cc1cccc(F)c1 (stereo not drawn) [Example 245] | 1.1 nM | 0.68 nM |
| COc1ccc(OC)c(CNC(=O)C(CCC(=O)N2CCN(C3CCCCC3)CC2)N2C(=O)C(N3C(=O)OCC3c3ccccc3)C2C=Cc2ccccc2)c1 (stereo not drawn) [Example 219] | 0.63 nM | 0.39 nM |
| O=C(NCc1ccccc1)C(CCC(=O)N1CCN(C2CCCCC2)CC1)N1C(=O)C(N2C(=O)OCC2c2ccccc2)C1C=Cc1ccccc1 (stereo not drawn) [Example 191] | 2.92 nM | 1.79 nM |
| COc1cc(OC)cc(C(C)(C)NC(=O)C(CCC(=O)N2CCN(C3CCCCC3)CC2)N2C(=O)C(N3C(=O)OCC3c3ccccc3)C2C=Cc2ccccc2)c1 (stereo not drawn) [Example 218] | 7.7 nM | 4.7 nM |
| O=C(NCc1cc(F)cc(C(F)(F)F)c1)C(CCC(=O)N1CCN(C2CCCCC2)CC1)N1C(=O)C(N2C(=O)OCC2c2ccccc2)C1C=Cc1ccccc1 (stereo not drawn) [Example 179] | 0.81 nM | 0.51 nM |

| Molecule | IC50 | Ki |
| --- | --- | --- |
| O=C(NCc1cccc(C(F)(F)F)c1)[C@H](CCC(=O)N1CCN(N2CCCC2)CC1)N1C(=O)[C@@H](N2C(=O)OC[C@@H]2c2ccccc2)[C@H]1/C=C/c1ccccc1 [Example 91] | 3.24 nM | 1.99 nM |
| CC(NC(=O)C(CC(=O)N1CCC(N2CCCCC2)CC1)N1C(=O)C(N2C(=O)OCC2c2cccc(Cl)c2)C1C=Cc1ccccc1)c1ccccc1 (stereo not drawn) [Example 256] | 2.8 nM | 1.7 nM |
| O=C(NC1(c2ccccc2)CC1)C(CCC(=O)N1CCN(C2CCCCC2)CC1)N1C(=O)C(N2C(=O)OCC2c2ccccc2)C1C=Cc1ccccc1 (stereo not drawn) [Example 207] | 4.48 nM | 2.74 nM |
| CN(Cc1cccc(C(F)(F)F)c1)C(=O)C(CCC(=O)N1CCN(C2CCCCC2)CC1)N1C(=O)C(N2C(=O)OCC2c2ccccc2)C1C=Cc1ccccc1 (stereo not drawn) [Example 205] | 0.34 nM | 0.21 nM |
| O=C(NC1CCCc2ccccc21)C(CCC(=O)N1CCN(C2CCCCC2)CC1)N1C(=O)C(N2C(=O)OCC2c2ccccc2)C1C=Cc1cccc([N+](=O)[O-])c1 (stereo not drawn) [Example 249] | 1.7 nM | 1 nM |
| O=C(NCc1cccc(C(F)(F)F)c1)C(CC(=O)N1CCN(N2CCCC2)CC1)N1C(=O)C(N2C(=O)OCC2c2ccccc2)C1C=Cc1ccccc1 (stereo not drawn) [Example 47] | ~50 nM | – |
| O=C(NCc1cccc(Br)c1)C(CCC(=O)N1CCN(C2CCCCC2)CC1)N1C(=O)C(N2C(=O)OCC2c2ccccc2)C1C=Cc1ccccc1 (stereo not drawn) [Example 190] | 0.88 nM | 0.54 nM |
| O=C(NCc1cc(Cl)ccc1Cl)C(CCC(=O)N1CCN(C2CCCCC2)CC1)N1C(=O)C(N2C(=O)OCC2c2ccccc2)C1C=Cc1ccccc1 (stereo not drawn) [Example 175] | 4.56 nM | 2.79 nM |
| N#Cc1cccc(C=CC2C(N3C(=O)OCC3c3ccccc3)C(=O)N2C(CCC(=O)N2CCN(C3CCCCC3)CC2)C(=O)NC2CCCc3ccccc32)c1 (stereo not drawn) [Example 248] | 5.3 nM | 3.3 nM |
| CC(NC(=O)C(CC(=O)N1CCC(N2CCCCC2)CC1)N1C(=O)C(N2C(=O)OCC2c2ccccc2)C1CCc1cccc(Cl)c1)c1ccccc1 (stereo not drawn) [Example 559] | 0.12 nM | 0.073 nM |
| O=C(NCc1cccnc1)C(CCC(=O)N1CCN(C2CCCCC2)CC1)N1C(=O)C(N2C(=O)OCC2c2ccccc2)C1C=Cc1ccccc1 (stereo not drawn) [Example 209] | 16 nM | 9.8 nM |
| O=C(NC1CCCc2ccccc21)C(CCC(=O)N1CCN(C2CCCCC2)CC1)N1C(=O)C(N2C(=O)OCC2c2ccccc2)C1C=Cc1cccc(Cl)c1 (stereo not drawn) [Example 243] | 0.5 nM | 0.3 nM |
| O=C(NC1Cc2ccccc2C1)C(CCC(=O)N1CCN(C2CCCCC2)CC1)N1C(=O)C(N2C(=O)OCC2c2ccccc2)C1C=Cc1ccccc1 (stereo not drawn) [Example 221P] | 1.7 nM | 1.1 nM |
| O=C(NC1CCCc2ccccc21)C(CCC(=O)N1CCN(C2CCCCC2)CC1)N1C(=O)C(N2C(=O)OCC2c2cccc(Cl)c2)C1C=Cc1cccc(Cl)c1 (stereo not drawn) [Example 251] | 0.5 nM | 0.3 nM |
| O=C(NCc1ccccn1)C(CCC(=O)N1CCN(C2CCCCC2)CC1)N1C(=O)C(N2C(=O)OCC2c2ccccc2)C1C=Cc1ccccc1 (stereo not drawn) [Example 208] | 16.3 nM | 10 nM |
| CC(NC(=O)C(CC(=O)N1CCC(N2CCCCC2)CC1)N1C(=O)C(N2C(=O)OCC2c2ccccc2)C1CCc1cccc(Br)c1)c1ccccc1 (stereo not drawn) [Example 606] | 0.53 nM | 0.32 nM |
| O=C(NCc1cc(Cl)cc(Cl)c1)C(CCC(=O)N1CCN(C2CCCCC2)CC1)N1C(=O)C(N2C(=O)OCC2c2ccccc2)C1C=Cc1ccccc1 (stereo not drawn) [Example 174] | 1.46 nM | 0.89 nM |
